The text below walks through data of patent publication US20100317848A1, “PROCESS FOR THE SYNTHESIS OF DERIVATIVES OF 3-AMINO-TETRAHYDROFURAN-3-CARBOXYLIC ACID AND USE THEREOF AS MEDICAMENTS” (BOEHRINGER INGELHEIM INTERNATIONAL GMBH, priority 2006, published 2010).

One data set deals with T1, human factor Xa (Homo sapiens, UniProt P00742).
T1 construct: released from the colourless chromogenic substrate by human factor Xa; purchased Calbiochem
The experiment in a line: Inhibition of factor Xa, enzyme-kinetic measurement with chromogenic substrate. The class given is biochemical. Conditions: FXa assay; (S)-form versus (R)-form at the tetrahydrofuran carbon. The method, then:
The compounds listed in the Experimental Section were investigated for their effect on the inhibition of factor Xa as follows:
Enzyme-kinetic measurement with chromogenic substrate. The quantity of p-nitroaniline (pNA) released from the colourless chromogenic substrate by human factor Xa is determined photometrically at 405 nm. It is proportional to the activity of the enzyme used. The inhibition of the enzyme activity by the test substance (in relation to the solvent control) is determined at various concentrations of test substance and from this the IC50 is calculated, as the concentration which inhibits the factor Xa used by 50%.
Tris(hydroxymethyl)-aminomethane buffer (100 mMol) and sodium chloride (150 mMol), pH 8.0 plus 1 mg/ml Human Albumin Fraction V, protease-free Factor Xa (Calbiochem), spec. activity: 217 IU/mg, final concentration: 7 IU/ml for each reaction mixture Substrate S 2765 (Chromogenix), final concentration: 0.3 mM/l (1 KM) for each reaction mixture Test substance: final concentration 100, 30, 10, 3, 1, 0.3, 0.1, 0.03, 0.01, 0.003, 0.001 μMol/l
10 μl of a 23.5-times concentrated starting solution of the test substance or solvent (control), 175 μl of TRIS/HSA buffer and 25 μl of a 65.8 U/L Factor Xa working solution are incubated for 10 minutes at 37° C. After the addition of 25 μl of S 2765 working solution (2.82 mMol/l) the sample is measured in a photometer (SpectraMax 250) at 405 nm for 600 seconds at 37° C.
1. Determining the maximum increase (deltaOD/minutes) over 21 measuring points. 2. Determining the % inhibition based on the solvent control. 3. Plotting a dosage/activity curve (% inhibition vs substance concentration). 4. Determining the IC50 by interpolating the X-value (substance concentration) of the dosage/activity curve at Y=50% inhibition.

The nature of data set [1]: Intrinsic dissolution rate in aqueous media, rotating disc method. The class given is physicochemical. Conditions: for dissolution rate: 37° C., 200 rpm. As for the experimental part: The intrinsic dissolution rate was determined in aqueous media covering a range of pH 1.1-7.4 using the rotating disc method which maintains a constant surface area. 5 mg of drug substance was compressed to form a disc at 356.1 N for 60 s. These discs were mounted to specially designed sample holders which fit into a Sotax dissolution tester. The dissolution media (37° C.) were stirred at 200 rpm. Samples were automatically withdrawn every second minute from the dissolution vessel and assayed via UV spectrophotometry. The intrinsic dissolution rate expressed in μg/cm^2/min was calculated using the slope of the concentration versus time plot and from the linear portion of the slope of the dissolution curve, volume of dissolution medium (35 ml) and area (diameter: 2 mm) of the exposed disk.

A short description of data set [2]: Solubility in different aqueous media. Format: physicochemical. Conditions: for solubility: aqueous medium.

Converted amounts (≈) assume the structure as drawn. “Also recorded” adds a separate entry of the source.

T1 sequence (P00742 235-488 limits assumed): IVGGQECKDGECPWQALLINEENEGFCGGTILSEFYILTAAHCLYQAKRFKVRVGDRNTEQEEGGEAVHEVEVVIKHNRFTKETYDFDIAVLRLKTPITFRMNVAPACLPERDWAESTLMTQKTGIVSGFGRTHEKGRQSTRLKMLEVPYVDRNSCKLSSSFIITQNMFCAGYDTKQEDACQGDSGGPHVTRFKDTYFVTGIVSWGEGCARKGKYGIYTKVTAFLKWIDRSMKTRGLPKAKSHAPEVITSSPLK
T1 sequence (P00742 41-179 partner limits assumed): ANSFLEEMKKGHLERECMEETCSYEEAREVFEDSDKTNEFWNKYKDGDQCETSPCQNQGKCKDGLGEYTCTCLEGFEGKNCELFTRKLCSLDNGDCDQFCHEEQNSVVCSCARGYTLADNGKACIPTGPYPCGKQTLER

As to `N#C/N=C1\CCOCCN1c1ccc(NC(=O)[C@]2(NC(=O)c3ccc(Cl)s3)CCOC2)cc1` [(S)-5-chloro-thiophene-2-carboxylic acid-N-{3-[4-(5-cyanimin-[1.4]oxazepan-4-yl)-phenylcarbamoyl]-tetrahydrofuran-3-yl}-amide], the “IC50 at an approximately x-fold lower plasma concentration compared to the (R)-enantiomer / corresponding (3R)-diastereoisomer” value against human factor Xa is “approximately 15 fold”.

As to `C[C@H]1CN(C)CCc2ccc(NC(=O)[C@]3(NC(=O)c4ccc(Cl)s4)CCOC3)cc21` [(3S)-3-[(5-chloro-thiophen-2-yl)-carbonylamino]-N-((5R)-3,5-dimethyl-2,3,4,5-tetrahydro-1H-benzo[d]azepin-7-yl)-tetrahydrofuran-3-carboxylic acid amide], the “IC50 at an approximately x-fold lower plasma concentration compared to the (R)-enantiomer / corresponding (3R)-diastereoisomer” value on human factor Xa is listed as “approximately 10 fold”.

Regarding `CN1CCc2ccc(NC(=O)[C@]3(NC(=O)c4ccc(Br)s4)CCOC3)cc2CC1` [(S)-3-[(5-bromo-thiophen-2-yl)-carbonylamino]-N-(3-methyl-2,3,4,5-tetrahydro-1H-benzo[d]azepin-7-yl)-tetrahydrofuran-3-carboxylic acid amide], at human factor Xa, the “IC50 at an approximately x-fold lower plasma concentration compared to the (R)-enantiomer / corresponding (3R)-diastereoisomer” value is given as “approximately 9 fold”.

As usually defined, the solubility is how much of the substance goes into solution per volume. A lower solubility goes with little dissolved substance. As to `CN1CCc2ccc(NC(=O)[C@]3(NC(=O)c4ccc(Cl)s4)CCOC3)cc2CC1` [(S)-3-[(5-chloro-thiophen-2-yl)-carbonylamino]-N-(3-methyl-2,3,4,5-tetrahydro-1H-benzo[d]azepin-7-yl)-tetrahydrofuran-3-carboxylic acid amide], the “IC50 at an approximately x-fold lower plasma concentration compared to the (R)-enantiomer / corresponding (3R)-diastereoisomer” value at human factor Xa is reported as “approximately 8 fold”. Also, the “dissolution rate in words” value in data set [1] (pH 7.4) is “acceptable dissolution rates”; in data set [1] (up to pH 6.0), “very fast dissolution rates”. Moreover, the dissolution rate in data set [1] (pH of aqueous medium 1.1) was 8220 μg/cm^2/min; in data set [1] (pH of aqueous medium 2.3) it was 4520 μg/cm^2/min; in data set [1] (pH of aqueous medium 3.2), 4000 μg/cm^2/min; in data set [1] (pH of aqueous medium 4.1) it was 3110 μg/cm^2/min; in data set [1] (pH of aqueous medium 5.1), 4015 μg/cm^2/min; in data set [1] (pH of aqueous medium 6.0), 4140 μg/cm^2/min. The same compound showed a dissolution rate in data set [1] (pH of aqueous medium 7.4) of 240 μg/cm^2/min. Moreover, the solubility in words entry in data set [2] (acidic media) was “excellent solubility; also recorded: high solubility”; in data set [2] (neutral and basic media) it was “reduced solubility”. In addition, the solubility in data set [2] (aqueous buffer, medium: 0.01 N NaOH) is 0.046 mg/mL (≈ 0.106 mM); in data set [2] (aqueous buffer, medium: pH 2.2), over 10 mg/mL; in data set [2] (aqueous buffer, medium: pH 4.0), over 10 mg/mL; in data set [2] (aqueous buffer, medium: pH 6.0), over 10 mg/mL; in data set [2] (aqueous buffer, medium: pH 7.4) it was 1.8 mg/mL (≈ 4.15 mM); in data set [2] (simulated gastric fluid, medium: 0.1 N HCl), over 10 mg/mL. This compound also showed a solubility in data set [2] (medium: water) of 0.28 mg/mL (≈ 0.645 mM). The “pH of the saturated solution” value amounted to 11.8 in data set [2] (medium: 0.01 N NaOH); 1.0 in data set [2] (medium: 0.1 N HCl); 2.4 in data set [2] (medium: pH 2.2); 4.3 in data set [2] (medium: pH 4.0); 6.3 in data set [2] (medium: pH 6.0); 7.5 in data set [2] (medium: pH 7.4). The “pH of the saturated solution” value in data set [2] (medium: water) worked out at 8.6.

On to `Cc1cc(NC(=O)[C@]2(NC(=O)c3ccc(Cl)s3)CCOC2)ccc1N1CCOCC/C1=N\C#N` [(S)-5-chloro-thiophene-2-carboxylic acid-N-{3-[3-methyl-4-(5-cyanimin-[1.4]oxazepan-4-yl)-phenylcarbamoyl]-tetrahydrofuran-3-yl}-amide], for which the “IC50 at an approximately x-fold lower plasma concentration compared to the (R)-enantiomer / corresponding (3R)-diastereoisomer” value against human factor Xa is “approximately 17 fold”.

As for `C[C@@H]1CN(C)CCc2ccc(NC(=O)[C@]3(NC(=O)c4ccc(Cl)s4)CCOC3)cc21` [(3S)-3-[(5-chloro-thiophen-2-yl)-carbonylamino]-N-((5S)-3,5-dimethyl-2,3,4,5-tetrahydro-1H-benzo[d]azepin-7-yl)-tetrahydrofuran-3-carboxylic acid amide], the “IC50 at an approximately x-fold lower plasma concentration compared to the (R)-enantiomer / corresponding (3R)-diastereoisomer” value at human factor Xa was “approximately 7 fold”.

`Cc1cc(NC(=O)[C@]2(NC(=O)c3ccc(Br)s3)CCOC2)ccc1N1CCOCCC1=O` [(S)-5-bromo-thiophene-2-carboxylic acid-N-{3-[3-methyl-4-(5-oxo-[1,4]oxazepan-4-yl)-phenylcarbamoyl]-tetrahydrofuran-3-yl}-amide]: on human factor Xa, the “IC50 at an approximately x-fold lower plasma concentration compared to the (R)-enantiomer / corresponding (3R)-diastereoisomer” value was “approximately 16 fold”.
